Measurements published in patent US10851067B2, “Kv7 channel activators compositions and methods of use” (Knopp Biosciences LLC, priority 2018, dated 2020).

Biological target: Kv7.2/7.3 (Homo sapiens, UniProt O43525+O43526)
Assay: Kv7.2/7.3 Activation Assay, QPatch single concentration screen
Type: cell-based
Set-up: host or cells: HEK cells, tetracycline-inducible expression; key: 1.2-2.9 (+); 3-3.9 (++); >4 (+++) fold increase over baseline; O represents open channel at holding potential
Settings: Kv7.2/Kv7.3 co-expressing HEK cells, compound concentration 3 μM, steady-state current at end of 2 s pulse to −30 mV
Procedure: Kv7.2/7.3 Activation Assay
The ability of compounds to potentiate K-currents in Kv7.2/7.3 containing HEK cells was assessed using planar patch-clamp on the QPatch automated screening platform.
The hKv7.2/7.3 cell line was obtained from Chantest (Cleveland, Ohio 44128) cat. #CT6147. These HEK cells will express the Kv7.2/7.3 ion channels when induced.
Cells were maintained in a media containing DMEM/F12; 50/50 (GIBCO cat. #11330), 10% Fetal Bovine Serum (FBS) (GIBCO cat. #26140), 100 units/mL Penicillin-Streptomycin (GIBCO cat. #15140), 0.005 mg/mL Blasticidin (INVIVOGEN cat. #ant-b1-1), 0.5 mg/mL Geneticin (GIBCO cat. #10131), 0.1 mg/mL Zeocin (GIBCO cat. #R25001). Cells used in the electrophysiology assay were maintained in a media without Blasticidin, Geneticin and Zeocin for 2 days and channel expression was induced by adding tetracycline (BIOLINE cat. #BIO-87030) at a final concentration of 1 mg/mL. Cells were grown in T-175 flask to ˜75% confluency. Currents were recorded 24 hours after channel induction.
Test compounds were prepared by performing serial dilutions on a Biomek NX^P (BECKMAN COULTER). Final dilutions were made in external recording solution with a final DMSO concentration of 0.1% DMSO. For single concentration screens each plate had 10 μM retigabine as a positive control and 0.1% DMSO as a negative control.
On the day of the experiment cells were washed with Hank's Balanced Salt Solution (HBBS) (GIBCO cat. #14175) and harvested with Tryple (GIBCO cat. #12604). Cells were then centrifuged at 2000 rpm for 5 minutes and resuspended in CHO-S-SFM (GIBCO cat. #12052) at ˜3×10^6 cells/mL. Cells were stirred for 30 minutes before experiments were started. External recording solution contained (in mM): NaCl (145), KCl (4), CaCl2 (2), MgCl2 (1), HEPES (10) and Glucose (10); pH was adjusted to 7.4 with NaOH and the osmolarity was adjusted to 300-305 mOsM with sucrose if necessary. Internal solution contained (in mM): KCl (125), KF (10), EGTA (5), Na2ATP (5), MgCl2 (3.2), HEPES (5); pH was adjusted to 7.2 with KOH and the osmolarity was adjusted to 298-302 mOsM with sucrose.
Potassium channel activity was measured on the QPatch HTX (Sophion Bioscience) using QPlates with 48-wells/plate. Each cell was taken as an independent experiment and only one compound was tested per well. Potassium channel activity was elicited by holding at −80 mV and stepping to −30 mV for 2 s followed by a 100 ms pulse to −120 mV.
Single Concentration Screen:
Baseline conditions were obtained by recording 5 sweeps in the external solution only, this was repeated for three applications of the external solution. The effect of test compounds on elicited current was then assessed by recording 5 sweeps in the presence of a 3 μM compound solution. The steady-state current at the end of the 2 s pulse to −30 mV was measured to determine the fold increase from baseline.

Structure (SMILES)	Kv7.2/7.3 Activity: increase over baseline in current
C[C@H](CC(=O)Nc1nc2c(F)cc(C(C)(C)O)cc2n1C1CCC1)c1ccccc1 [Example 412, (R)-N-(1-cyclobutyl-4-fluoro-6-(2-hydroxypropan-2-yl)-1H-benzo[d]imidazol-2-yl)-3-phenylbutanamide]	++ (3-3.9 (++))
CC(C)(O)c1cc(F)c2nc(NC(=O)CC3CC(F)(F)C3(F)F)n(C3CCC3)c2c1 (single isomer, unassigned) [Example 466, N-(1-cyclobutyl-4-fluoro-6-(2-hydroxypropan-2-yl)-1H-benzo[d]imidazol-2-yl)-2-(2,2,3,3-tetrafluorocyclobutyl)acetamide]	++ (3-3.9 (++))
CC(C)(O)c1ccc2nc(NC(=O)CC(C)(O)c3ccccc3)n(C34CC(C3)C4)c2c1 (single isomer, unassigned) [Example 371, N-(1-(bicyclo[1.1.1]pentan-1-yl)-6-(2-hydroxypropan-2-yl)-1H-benzo[d]imidazol-2-yl)-3-hydroxy-3-phenylbutanamide]	O
CC(O)(CC(=O)Nc1nc2ccc(OC(F)F)cc2n1C1CCC1)c1ccccc1 (single isomer, unassigned) [Example 422, N-(1-cyclobutyl-6-(difluoromethoxy)-1H-benzo[d]imidazol-2-yl)-3-hydroxy-3-phenylbutanamide]	+ (1.2-2.9 (+))
CN(C)c1ccc2nc(NC(=O)CC(C)(O)c3ccccc3)n(C3CCC3)c2c1F (single isomer, unassigned) [Example 485, N-(1-cyclobutyl-6-(dimethylamino)-7-fluoro-1H-benzo[d]imidazol-2-yl)-3-hydroxy-3-phenylbutanamide]	+++ (>4 (+++) fold increase over baseline)
CC(C)(C)n1c(NC(=O)CC(C)(C)C(F)(F)F)nc2c(F)cc(C#N)cc21 [Example 378, N-(1-(tert-butyl)-6-cyano-4-fluoro-1H-benzo[d]imidazol-2-yl)-4,4,4-trifluoro-3,3-dimethylbutanamide]	+++ (>4 (+++) fold increase over baseline)
CC(C)(C)CC(=O)Nc1nc2ccc(C#N)c(F)c2n1C(C)(C)C [Example 387, N-(1-(tert-butyl)-6-cyano-7-fluoro-1H-benzo[d]imidazol-2-yl)-3,3-dimethylbutanamide]	++ (3-3.9 (++))
CC(C)(C)CC(=O)Nc1nc2c(F)cc(OC(F)F)cc2n1C1CCC1 [Example 331, N-(1-cyclobutyl-6-(difluoromethoxy)-4-fluoro-1H-benzo[d]imidazol-2-yl)-3,3-dimethylbutanamide]	+++ (>4 (+++) fold increase over baseline)
CC1(CC(=O)Nc2nc3c(F)cc(C(C)(C)O)cc3n2C2(C)CCC2)CC1 [Example 474, N-(4-fluoro-6-(2-hydroxypropan-2-yl)-1-(1-methylcyclobutyl)-1H-benzo[d]imidazol-2-yl)-2-(1-methylcyclopropyl)acetamide]	O
CC(C)(CC(=O)Nc1nc2cccc(F)c2n1C1CCC1)C(F)(F)F [Example 408, N-(1-cyclobutyl-7-fluoro-1H-benzo[d]imidazol-2-yl)-4,4,4-trifluoro-3,3-dimethylbutanamide]	++ (3-3.9 (++))
COc1cc(F)c2nc(NC(=O)CC(C)(C)C)n(C3(C)CCC3)c2c1 [Example 355, N-(4-fluoro-6-methoxy-1-(1-methylcyclobutyl)-1H-benzo[d]imidazol-2-yl)-3,3-dimethylbutanamide]	+++ (>4 (+++) fold increase over baseline)
CC(O)(CC(=O)Nc1nc2ccc(C#N)cc2n1C1(C)CCC1)c1c(F)cccc1F (single isomer, unassigned) [Example 467, N-(6-cyano-1-(1-methylcyclobutyl)-1H-benzo[d]imidazol-2-yl)-3-(2,6-difluorophenyl)-3-hydroxybutanamide]	+ (1.2-2.9 (+))
CC(C)(O)c1ccc2nc(NC(=O)CC3CC(F)(F)C3(F)F)n(C3CCC3)c2c1 (single isomer, unassigned) [Example 398, N-(1-cyclobutyl-6-(2-hydroxypropan-2-yl)-1H-benzo[d]imidazol-2-yl)-2-(2,2,3,3-tetrafluorocyclobutyl)acetamide]	+ (1.2-2.9 (+))
CC(C)(C)CC(=O)Nc1nc2c(F)cc(C3(O)CCC3)cc2n1C1CCC1 [Example 421, N-(1-cyclobutyl-4-fluoro-6-(1-hydroxycyclobutyl)-1H-benzo[d]imidazol-2-yl)-3,3-dimethylbutanamide]	+++ (>4 (+++) fold increase over baseline)
CC(C)(O)c1ccc2nc(NC(=O)CC(C)(C)C(F)F)n(C3CCC3)c2c1 [Example 386, N-(1-cyclobutyl-6-(2-hydroxypropan-2-yl)-1H-benzo[d]imidazol-2-yl)-4,4-difluoro-3,3-dimethylbutanamide]	+ (1.2-2.9 (+))
CN(C)c1ccc2nc(NC(=O)CC(C)(C)C)n(C3CCC3)c2c1F [Example 454, N-(1-cyclobutyl-6-(dimethylamino)-7-fluoro-1H-benzo[d]imidazol-2-yl)-3,3-dimethylbutanamide]	+++ (>4 (+++) fold increase over baseline)
CC(C)(O)c1ccc2nc(NC(=O)CC3CC(F)(F)C3(F)F)n(C3CCC3)c2c1 (stereo not shown) [Example 353, N-(1-cyclobutyl-6-(2-hydroxypropan-2-yl)-1H-benzo[d]imidazol-2-yl)-2-(2,2,3,3-tetrafluorocyclobutyl)acetamide]	+ (1.2-2.9 (+))
CC(C)(C)CC(=O)Nc1nc2cc(F)cc(C#N)c2n1C1(C)CCC1 [Example 436, N-(7-cyano-5-fluoro-1-(1-methylcyclobutyl)-1H-benzo[d]imidazol-2-yl)-3,3-dimethylbutanamide]	++ (3-3.9 (++))
CC(O)(CC(=O)Nc1nc2cc(F)cc(C#N)c2n1C1(C)CCC1)c1ccccc1 (single isomer, unassigned) [Example 441, N-(7-cyano-5-fluoro-1-(1-methylcyclobutyl)-1H-benzo[d]imidazol-2-yl)-3-hydroxy-3-phenylbutanamide]	++ (3-3.9 (++))
CC(C)(C)CC(=O)Nc1nc2c(F)cc(C#N)cc2n1C(C)(C)C [Example 420, N-(1-(tert-butyl)-6-cyano-4-fluoro-1H-benzo[d]imidazol-2-yl)-3,3-dimethylbutanamide]	+ (1.2-2.9 (+))
C[C@@H](CC(=O)Nc1nc2ccc(C(C)(C)O)cc2n1C1CCC1)c1ccccc1 [Example 369, (S)-N-(1-cyclobutyl-6-(2-hydroxypropan-2-yl)-1H-benzo[d]imidazol-2-yl)-3-phenylbutanamide]	O
CC(C)(O)c1ccc2nc(NC(=O)CC3CC(F)(F)C3(F)F)n(C3(C)CCC3)c2c1 (single isomer, unassigned) [Example 376, N-(6-(2-hydroxypropan-2-yl)-1-(1-methylcyclobutyl)-1H-benzo[d]imidazol-2-yl)-2-(2,2,3,3-tetrafluorocyclobutyl)acetamide]	+ (1.2-2.9 (+))
